From patent US9187523B2 (priority 2006, dated 2015)
Where a SMILES comes first, the peptide text is derived from it. The star is where a group is joined. Dabcyl = CN(C)c1ccc(N=Nc2ccc(C(=O)*)cc2)cc1; EDANS = O=S(=O)(O)c1cccc2c(NCCN*)cccc12

Test system: Yersinia pestis cells lacking plague plasminogen activator gene
Type: cell-based

Structure (SMILES): CC[C@H](C)[C@H](NC(=O)[C@H](CCCNC(=N)N)NC(=O)[C@H](CCCNC(=N)N)NC(=O)c1ccc(N=Nc2ccc(N(C)C)cc2)cc1)C(=O)N[C@@H](CC(N)=O)C(=O)N[C@@H](CCCNC(=N)N)C(=O)N[C@@H](CCC(=O)NCCNc1cccc2c(S(=O)(=O)O)cccc12)C(N)=O [DABCYL-Arg-Arg-Ile-Asn-Arg-Glu-(EDANS)-NH2] (Dabcyl-RRINRE(EDANS)-NH2)
- fluorescence with Pla-negative mutant: low background fluorescence
